Laboratory results: patent US9296716B2, “Androgen receptor ligands” (THE PROVOST, FELLOWS, FOUNDATION SCHOLARS, & THE OTHER …, priority 2011, dated 2016)

System: PSA expression in LNCaP cells
Experiment: PSA ELISA, secreted PSA in LNCaP cells
Type: cell-based
Experimental: To investigate compounds effect on PSA expression, a common biomarker for prostate cancer, we utilized a human PSA ELISA assay.
For cell viability (end point) assays LNCaP, PC-3 and PWR-1E cells were seeded at 2.5*10^4/ml density in 200 μl volume of a 96-well plate in triplicate and incubated for 24 hours prior testing. Test compounds were included at different concentrations to achieve a final concentration of 0.5% DMSO in each well. Effect of 0.5% DMSO on cell-viability was also evaluated. Cell viability was assessed after 24 hours of treatment using 10% Alamar Blue reagent (Invitrogen) for each well. Cell viability was monitored by the reduction of resazurin, a blue, cell-permeable and non-toxic compound, to resorufin, a red and highly fluorescent product. Viable cells continuously convert resazurin to resorufin, increasing the overall colour and fluorescence of the media surrounding cells. Fluorescence intensity can be quantitatively determined with a fluorescence microplate reader at excitation/emission 544 nm/590 nm (Spectramax Gemini). For hormone dependent cell proliferation assays in androgen deprived LNCaP cells, cells were seeded at 2*10^4 cells/ml in a 24-well plate in triplicate. Cells were plated in phenol red free RPMI Glutamax (Invitrogen) supplemented with 10% charcoal-stripped FBS to deplete endogenous steroids 48 hours prior the assay as described in previous reports. […] Cells were treated with different concentrations of test compounds with or without 0.1 nM DHT to achieve a final concentration of 0.1% DMSO in each well. A control for the vehicle was included to ensure no effect on viability could be detected. Media and treatments were replaced every second day, after washing the cells twice with 1×PBS. Supernatants were collected after five days for secreted PSA levels evaluation and cell proliferation was assessed for the same plate using Alamar Blue in order to exclude non-specific effects due to toxicity issues.
Secreted levels of prostate specific antigen were evaluated with a commercially available kit (Quantikine Human Kallikrein 3/PSA Immunoassay, R&D systems). The assay was performed following manufacturer's guidelines. In brief, 50 μl of standards and cell culture samples were added to pre-coated wells containing assay diluent RD1W (R&D systems) and incubated for two hours at room temperature. […] Wells were washed and treated with colored substrate (Tetramethylbenzidine) for an additional 30 minutes, after which 50 μl of stop solution (Sulphuric Acid 2N) was added per well and absorbance (450 nm with correction at 540 nm) was read with a plate reader within 30 minutes (Versamax).

COc1cc(/C=N/NC(=O)c2cc3c(ccc4ccccc43)o2)cc(OC)c1O [MDG506]
PSA expression in absence of androgens: does not induce | CPA stimulated PSA secretion / expression (MDG506 at 10 or 20 μM): significantly (P<0.001) reduces | DHT stimulated PSA expression (concentrations up to 20 μM): dose dependent inhibition
